Experimental data as given in US20260272934A1 (The United States of America, as represented by the …, priority 2023, published 2026).
Read-outs that look alike come from different tables or passages of the source.

Tests used:
[1] = molecular target: T1, full-length Plk1 / biotinylated PBIP1 phospho-T78 peptide interaction (Homo sapiens, UniProt P53350); assay: ELISA-based PBD1-binding inhibition assay; settings: at least three independent experiments; read-out: ELISA (IC50) Mean ± SEM
T1 construct: HA; EGFP; expressed in transfected cells; host or cells: HEK293A cells infected with adenovirus; total lysates
T1 sequence (P53350 whole entry): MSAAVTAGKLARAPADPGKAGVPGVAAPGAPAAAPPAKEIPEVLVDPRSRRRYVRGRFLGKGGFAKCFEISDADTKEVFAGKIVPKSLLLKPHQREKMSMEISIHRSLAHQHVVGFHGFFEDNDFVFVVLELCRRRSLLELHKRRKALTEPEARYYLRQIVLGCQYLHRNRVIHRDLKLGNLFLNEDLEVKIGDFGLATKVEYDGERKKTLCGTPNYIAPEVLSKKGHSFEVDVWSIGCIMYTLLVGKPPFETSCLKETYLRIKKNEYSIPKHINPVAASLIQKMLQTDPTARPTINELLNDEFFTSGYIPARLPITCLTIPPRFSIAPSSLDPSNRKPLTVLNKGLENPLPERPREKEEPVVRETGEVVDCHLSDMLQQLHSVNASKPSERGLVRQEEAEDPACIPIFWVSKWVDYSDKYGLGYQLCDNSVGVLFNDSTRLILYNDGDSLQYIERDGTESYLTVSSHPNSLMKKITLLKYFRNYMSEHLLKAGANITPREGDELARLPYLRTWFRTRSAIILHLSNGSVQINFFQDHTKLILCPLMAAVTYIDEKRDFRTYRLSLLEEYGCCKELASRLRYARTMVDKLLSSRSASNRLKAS

[2] = test system: multiple myeloma-derived L363 cells; assay: Colorimetric MTS cell viability assay; format: cell-based; settings: for GI50: Homo sapiens, L-363, N.S. = Not significant, read-out: Cell efficacy (GI50) Mean ± SD; for Cell efficacy (GI50) Mean ± SD: N.S. = Not significant
From the text: • *Data from Park, J. E., et al {Park, 2023 #3387}. **Data from Alverez C. N., et al {Alverez, 2020 #3186}. N. S., Not significant; N. D., Not determined. ^a IC50 values determined from at least three independent experiments except as noted in parentheses. b A colorimetric MTS cell viability assay carried out using multiple myeloma-derived L363 cells.

PBD1 = PBD1 (Homo sapiens, UniProt P53350); assay: FP-based inhibition assay; format: binding; settings: read-out: PBD1 IC50 ± SD
PBD1, sequence (P53350 371-594 limits assumed): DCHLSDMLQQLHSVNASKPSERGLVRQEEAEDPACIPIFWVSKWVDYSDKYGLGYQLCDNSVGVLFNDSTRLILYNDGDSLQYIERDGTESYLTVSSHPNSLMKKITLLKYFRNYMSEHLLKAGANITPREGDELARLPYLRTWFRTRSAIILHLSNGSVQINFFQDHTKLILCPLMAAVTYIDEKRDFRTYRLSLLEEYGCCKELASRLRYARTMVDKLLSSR
Description: In the following, PBD1-3 fluorescence polarization (FP) binding assays were carried out for determining the Plk1 specificity. […] All samples were analyzed approximately 30 min after reaction in a 384-well format using the SpectraMax Paradigm multi-mode microplate detection platform (Molecular Devices). Data were analyzed after carrying out at least three independent experiments using GraphPad Prism software version 7.

Plk2 PBD = assay: FP-based inhibition assay; format: binding; settings: N.S. = Not significant
Description: (§1) In the following, PBD1-3 fluorescence polarization (FP) binding assays were carried out for determining the Plk1 specificity. FP assays were carried out essentially as described previously {Liu, 2011 #2790; Qian, 2014 #1416}. All samples were analyzed approximately 30 min after reaction in a 384-well format using the SpectraMax Paradigm multi-mode microplate detection platform (Molecular Devices). Data were analyzed after carrying out at least three independent experiments using GraphPad Prism software version 7.

Plk3 PBD = assay: FP-based inhibition assay; format: binding; settings: N.S. = Not significant
Description: as §1

[3] = molecular target: T1, full-length Plk1 / biotinylated PBIP1 phospho-T78 peptide interaction; settings: *Data from Park, J. E., et al 2023; read-out: ELISA (IC50) Mean ± SEM; cited from earlier work
[4] = test system: multiple myeloma-derived L363 cells; settings: MTS, *Data from Park, J. E., cited from earlier work
[5] = Solubility remark in Table 1; format: physicochemical
[6] = *Data from Park, J. E., et al 2023; cited from earlier work

SMILES: CCCn1c(=O)c2sc(Cl)cc2n2c(Sc3c([N+](=O)[O-])ncn3C)nnc12 [Compound 14, 7-Chloro-1-((1-methyl-4-nitro-1H-imidazol-5-yl)thio)-4-propylthieno[2,3-e][1,2,4]triazolo[4,3-a]pyrimidin-5 (4H)-one]
- IC50 [1]: > 50 µM
- GI50 [2]: 6.04 ± 0.17 µM

SMILES: CCCn1c(=O)c2sc3ccccc3c2n2c(Sc3c([N+](=O)[O-])ncn3C)nnc12 [Compound 18, 1-((1-Methyl-4-nitro-1H-imidazol-5-yl)thio)-4-propylbenzo[4,5]thieno[2,3-e][1,2,4]triazolo[4,3-a]pyrimidin-5 (4H)-one]
- IC50 [1]: > 50 µM
- GI50 [2]: 7.05 ± 0.27 µM

SMILES: CCCn1c(=O)c2sc(C)cc2n2c(=S)[nH]nc12 [Compound 3]
- IC50 (PBD1): 0.0102 ± 0.0015 µM
- Plk2 PBD IC50 ± SD (Plk2 PBD): N.S.
- Plk3 PBD IC50 ± SD (Plk3 PBD): N.S.
- IC50 [3]: 2.15 ± 0.13 µM
- Cell efficacy (GI50) Mean ± SD ([4]; et al 2023): N.S.

SMILES: O=C(CCCCC1SCC2NC(=O)NC21)NCCOCCOCCOCCOCCC(=O)NCCCn1c(=O)c2cc(F)ccc2n2c(=S)[nH]nc12 (centres unmarked) [Compound 22, N-(3-(7-Fluoro-5-oxo-1-thioxo-1,2-dihydro-[1,2,4]triazolo[4,3-a]quinazolin-4 (5H)-yl)propyl)-1-(5-(2-oxohexahydro-1H-thieno[3,4-d]imidazol-4-yl)pentanamido)-3,6,9,12-tetraoxapentadecan-15-amide]
- IC50 [1]: 9.32 ± 0.17 µM

SMILES: Cc1cc2c(s1)c(=O)n(CC1CC1)c1nnc(Sc3c([N+](=O)[O-])ncn3C)n21 [Compound 6, 4-(Cyclopropylmethyl)-7-methyl-1-((1-methyl-4-nitro-1H-imidazol-5-yl)thio) thieno[2,3-e][1,2,4]triazolo[4,3-a]pyrimidin-5 (4H)-one]
- IC50 [1]: > 50 µM
- GI50 [2]: 3.13 ± 0.15 µM
- solubility [5]: low solubility

SMILES: Cc1cc2c(s1)c(=O)n(CC1CC1)c1n[nH]c(=S)n21 [Compound 5, 4-(Cyclopropylmethyl)-7-methyl-1-thioxo-2,4-dihydrothieno[2,3-e][1,2,4]triazolo[4,3-a]pyrimidin-5 (1H)-one]
- IC50 [1]: 1.66 ± 0.04 µM
- Cell efficacy (GI50) Mean ± SD [2]: N.S.
- IC50 (PBD1): 0.0128 ± 0.0026 µM
- Plk2 PBD IC50 ± SD (Plk2 PBD): N.S.
- Plk3 PBD IC50 ± SD (Plk3 PBD): N.S.

SMILES: CC(=O)N1CCC[C@H]1C(=O)N[C@@H](CC(C)C)C(=O)N[C@@H](Cc1cnc[nH]1)C(=O)N[C@@H](CO)C(=O)N[C@H](C(=O)O)[C@@H](C)O [Compound 1, PLHST, reference compound]
- Cell efficacy (GI50) Mean ± SD [2]: N.S.

SMILES: CCCn1c(=O)c2sccc2n2c(Sc3c([N+](=O)[O-])ncn3C)nnc12 [Compound 12, 1-((1-Methyl-4-nitro-1H-imidazol-5-yl)thio)-4-propylthieno[2,3-e][1,2,4]triazolo[4,3-a]pyrimidin-5 (4H)-one]
- IC50 [1]: > 50 µM
- GI50 [2]: 8.4 ± 0.74 µM
- solubility [5]: moderate solubility

SMILES: CCCn1c(=O)c2sc(C)cc2n2c(Sc3c([N+](=O)[O-])ncn3C)nnc12 [Compound 4]
- IC50 [3]: > 50 µM
- GI50 ([4]; et al 2023, read-out: Cell efficacy (GI50) Mean ± SD): 4.88 ± 0.1 µM
- solubility [6]: low solubility

SMILES: CCCn1c(=O)c2oc3cccc(F)c3c2n2c(Sc3c([N+](=O)[O-])ncn3C)nnc12 [Compound 10, 10-Fluoro-1-((1-methyl-4-nitro-1H-imidazol-5-yl)thio)-4-propylbenzofuro[2,3-e][1,2,4]triazolo[4,3-a]pyrimidin-5 (4H)-one]
- IC50 [1]: > 50 µM
- GI50 [2]: 7.53 ± 0.43 µM

SMILES: CCCn1c(=O)c2sc(C(C)(C)C)cc2n2c(Sc3c([N+](=O)[O-])ncn3C)nnc12 [Compound 16, 7-(tert-Butyl)-1-((1-methyl-4-nitro-1H-imidazol-5-yl)thio)-4-propylthieno[2,3-e][1,2,4]triazolo[4,3-a]pyrimidin-5 (4H)-one]
- IC50 [1]: > 50 µM
- GI50 [2]: 4.19 ± 0.15 µM
- solubility [5]: moderate solubility

SMILES: CC(=O)N1CCC[C@H]1C(=O)N[C@@H](CC(C)C)C(=O)N[C@@H](Cc1cnc[nH]1)C(=O)N[C@@H](CO)C(=O)N[C@H](C(=O)O)[C@@H](C)OP(=O)(O)O [Compound 2, PLHSpT, reference compound]
- Cell efficacy (GI50) Mean ± SD [2]: N.S.
- Plk2 PBD IC50 ± SD (Plk2 PBD): N.S.
- Plk3 PBD IC50 ± SD (Plk3 PBD): N.S.

SMILES: CCCn1c(=O)c2oc3ccccc3c2n2c(Sc3c([N+](=O)[O-])ncn3C)nnc12 [Compound 8, 1-((1-Methyl-4-nitro-1H-imidazol-5-yl)thio)-4-propylbenzofuro[2,3-e][1,2,4]triazolo[4,3-a]pyrimidin-5(4H)-one]
- IC50 [1]: > 50 µM
- GI50 [2]: 8.31 ± 0.56 µM
